Measured values reported in patent publication US20260022096A1, “NOVEL SULFONAMIDES AND THEIR USE AS NEUROPROTECTIVE AND/OR NEURORESTORATIVE AGENTS” (GENECODE, priority 2022, published 2026).

Molecular target: T1, GFRα1-RET (Homo sapiens, UniProt P56159)
T1 construct: expressed in transfected cells; host or cells: MG87 murine fibroblasts, stably transfected
T1 sequence (P56159 25-429 limits assumed): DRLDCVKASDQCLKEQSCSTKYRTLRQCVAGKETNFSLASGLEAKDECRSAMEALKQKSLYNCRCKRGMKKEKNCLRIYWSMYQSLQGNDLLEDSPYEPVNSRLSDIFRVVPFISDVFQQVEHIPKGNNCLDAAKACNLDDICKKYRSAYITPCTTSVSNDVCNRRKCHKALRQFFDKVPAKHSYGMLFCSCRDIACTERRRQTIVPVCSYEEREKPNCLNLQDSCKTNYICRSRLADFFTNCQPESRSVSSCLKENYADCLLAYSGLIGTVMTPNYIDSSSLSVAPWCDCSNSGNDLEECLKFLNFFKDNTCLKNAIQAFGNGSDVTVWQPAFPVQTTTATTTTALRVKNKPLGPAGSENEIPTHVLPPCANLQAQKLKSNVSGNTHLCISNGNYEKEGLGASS
Assay: Elk1 reporter-gene (luciferase) assay in cells expressing GFRα1-RET
Type: cell-based
Details: MG87 murine fibroblasts stably transfected with PathDetect Elk-1, GFRα1 and RET, 6 concentrations, agonist/activator activity
Procedure: For ECso determination, a dose-response test was performed using 6 concentrations of each tested compound. Dose-response curves were fitted using the sigmoidal dose-response (variable slope) analysis in GraphPad Prism program (Graph Pad Inc) and ECso of agonist/activator activity was calculated. Dose-response experiments were all performed in duplicate, two times independently.

| SMILES | EC50 |
| --- | --- |
| O=C(c1ccc(F)cc1Cl)N1C[C@H]2CC[C@@H](C1)N2c1cc(S(=O)(=O)N2CCN(CCc3ccc(F)cc3)CC2)cc2c1OCC2 [compound 059, (2-chloro-4-fluoro-phenyl)-[(1S,5R)-8-[5-[4-[2-(4-fluorophenyl)ethyl]piperazin-1-yl]sulfonyl-2,3-dihydrobenzofuran-7-yl]-3,8-diazabicyclo[3.2.1]octan-3-yl]methanone] | < 1000 nM |
| C[C@H]1CN(C(=O)c2ccc(F)cc2Cl)CCN1c1cc(S(=O)(=O)NC(C)(C)C)cc(Cl)c1O [compound 110, N-tert-butyl-3-chloro-5-[(2S)-4-(2-chloro-4-fluoro-benzoyl)-2-methyl-piperazin-1-yl]-4-hydroxy-benzenesulfonamide] | < 1000 nM |
| CCCN(C)S(=O)(=O)c1ccc(OC2CCC2)c(N2[C@@H]3CC[C@H]2CN(C(=O)c2ccc(F)cc2Cl)C3)c1 [compound 030, 3-[(1S,5R)-3-(2-chloro-4-fluoro-benzoyl)-3,8-diazabicyclo[3.2.1]octan-8-yl]-4-(cyclobutoxy)-N-methyl-N-propyl-benzenesulfonamide] | 1000 to 10000 nM |
| O=C(c1ccc(F)cc1Cl)N1C[C@H]2CC[C@@H](C1)N2c1cc(S(=O)(=O)N2CCC(c3ccccc3)CC2)cc(Cl)c1O [compound 098] | < 1000 nM |
| CCCN(C)S(=O)(=O)c1ccc(OC)c(N2[C@@H]3COC[C@H]2CN(C(=O)c2ccc(F)cc2C(F)(F)F)C3)c1 [compound 023, 3-[(1S,5R)-7-[4-fluoro-2-(trifluoromethyl)benzoyl]-3-oxa-7,9-diazabicyclo[3.3.1]nonan-9-yl]-4-methoxy-N-methyl-N-propyl-benzenesulfonamide] | 10000 to 50000 nM |
| COc1ccc(S(=O)(=O)N2CCC(=Cc3ccccc3)CC2)cc1N1[C@@H]2CC[C@H]1CN(C(=O)c1ccc(F)cc1Cl)C2 [compound 008, [(1S,5R)-8-[5-[(4-benzylidene-1-piperidyl)sulfonyl]-2-methoxy-phenyl]-3,8-diazabicyclo[3.2.1]octan-3-yl]-(2-chloro-4-fluoro-phenyl)methanone] | < 1000 nM |
| CCCN(C)S(=O)(=O)c1cccc(N2[C@@H]3CC[C@H]2CN(C(=O)c2ccc(F)cc2Cl)C3)c1 [compound 028, 3-[(1S,5R)-3-(2-chloro-4-fluoro-benzoyl)-3,8-diazabicyclo[3.2.1]octan-8-yl]-N-methyl-N-propyl-benzenesulfonamide] | 1000 to 10000 nM |
| CN(C(C)(C)C)S(=O)(=O)c1cc(Cl)c(OCc2ccccc2)c(N2[C@@H]3CC[C@H]2CN(C(=O)c2ccc(F)cc2Cl)C3)c1 [compound 136, 4-benzyloxy-N-tert-butyl-3-chloro-5-[(1S,5R)-3-(2-chloro-4-fluoro-benzoyl)-3,8-diazabicyclo[3.2.1]octan-8-yl]-N-methyl-benzenesulfonamide] | < 1000 nM |
| CC(C)(C)NS(=O)(=O)c1cc(Cl)c(O)c(N2[C@@H]3CC[C@H]2CN(C(=O)c2ccc(F)cc2Cl)C3)c1F [compound 139, N-tert-butyl-5-chloro-3-[(1S,5R)-3-(2-chloro-4-fluoro-benzoyl)-3,8-diazabicyclo[3.2.1]octan-8-yl]-2-fluoro-4-hydroxy-benzenesulfonamide] | < 1000 nM |
| COc1ccc(S(=O)(=O)N2CCN([C@H]3C[C@@H]3c3ccc(F)cc3)CC2)cc1N1[C@@H]2CC[C@H]1CN(C(=O)c1ccc(F)cc1Cl)C2 (racemic) [compound 044, (2-chloro-4-fluoro-phenyl)-[(1S,5R)-8-[5-[4-[(1SR,2RS)-2-(4-fluorophenyl)cyclopropyl]piperazin-1-yl]sulfonyl-2-methoxy-phenyl]-3,8-diazabicyclo[3.2.1]octan-3-yl]methanone] | < 1000 nM |
| COc1ccc(S(=O)(=O)N2CCN(c3ncccn3)CC2)cc1N1[C@@H]2CC[C@H]1CN(C(=O)c1ccc(F)cc1Cl)C2 [compound 013] | 1000 to 10000 nM |
| COc1ccc(S(=O)(=O)N2CCC(CCc3ccccc3)CC2)cc1N1[C@@H]2CC[C@H]1CN(C(=O)c1cc(F)c(F)cc1Cl)C2 [compound 050, (2-chloro-4,5-difluoro-phenyl)-[(1S,5R)-8-[2-methoxy-5-[[4-(2-phenylethyl)-1-piperidyl]sulfonyl]phenyl]-3,8-diazabicyclo[3.2.1]octan-3-yl]methanone] | < 1000 nM |
| COc1ccc(S(=O)(=O)NC(C)(C)C)cc1N1CCN(C(=O)c2ccc(F)cc2Cl)CC1C (racemic) [compound 020, N-tert-butyl-4-methoxy-3-[rac-(2S)-4-(2-chloro-4-fluoro-benzoyl)-2-methyl-piperazin-1-yl]benzenesulfonamide] | 10000 to 50000 nM |
| Cc1c(O)cc(S(=O)(=O)N2CCC(c3ccccc3)CC2)cc1N1[C@@H]2CC[C@H]1CN(C(=O)c1ccc(F)cc1Cl)C2 [compound 124, (2-chloro-4-fluoro-phenyl)-[(1S,5R)-8-[3-hydroxy-2-methyl-5-[(4-phenyl-1-piperidyl)sulfonyl]phenyl]-3,8-diazabicyclo[3.2.1]octan-3-yl]methanone] | < 1000 nM |
| CC1(C)COCCN1S(=O)(=O)c1cc(Cl)c(O)c(N2[C@@H]3CC[C@H]2CN(C(=O)c2ccc(F)cc2Cl)C3)c1 [compound 131, [(1S,5R)-8-[3-chloro-5-(3,3-dimethylmorpholin-4-yl)sulfonyl-2-hydroxy-phenyl]-3,8-diazabicyclo[3.2.1]octan-3-yl]-(2-chloro-4-fluoro-phenyl)methanone] | < 1000 nM |
| COc1ccc(S(=O)(=O)N2CCN(CC(C)c3ccccc3)CC2)cc1N1C2CCC1CN(C(=O)c1ccc(F)cc1Cl)C2 (racemic) [compound 047, (2-chloro-4-fluoro-phenyl)-[(1S,5R)-8-[2-methoxy-5-[4-[(2RS)-2-phenylpropyl]piperazin-1-yl]sulfonyl-phenyl]-3,8-diazabicyclo[3.2.1]octan-3-yl]methanone] | < 1000 nM |
| COc1ccc(S(=O)(=O)N(C)CC2CC2)cc1N1[C@@H]2CC[C@H]1CN(C(=O)c1ccc(F)cc1Cl)C2 [compound 005, 3-[(1S,5R)-3-(2-chloro-4-fluoro-benzoyl)-3,8-diazabicyclo[3.2.1]octan-8-yl]-N-(cyclopropylmethyl)-4-methoxy-N-methyl-benzenesulfonamide] | < 1000 nM |
| O=C(c1ccc(F)cc1Cl)N1C[C@H]2CC[C@@H](C1)N2c1cc(S(=O)(=O)N2CCC(c3ccccc3)CC2)ccc1-c1c[nH]cn1 [compound 081] | < 1000 nM |
| CC(C)(C)NS(=O)(=O)c1cc2c(c(N3[C@@H]4CC[C@H]3CN(C(=O)c3ccc(F)cc3Cl)C4)c1)OCC2 [compound 057, N-tert-butyl-7-[(1S,5R)-3-(2-chloro-4-fluoro-benzoyl)-3,8-diazabicyclo[3.2.1]octan-8-yl]-2,3-dihydrobenzofuran-5-sulfonamide] | < 1000 nM |
